Measurements: ChEMBL document CHEMBL1806489, “Synthesis and biological evaluation of novel F-18 labeled pyrazolo[1,5-a]pyrimidine derivatives: potential PET imaging agents for tumor detection” (Bioorg Med Chem Lett, 2011)

How the values were obtained:
Format in all cases: ADME, cell-based
CCRF S-180 [1] = experiment: Cellular uptake in mouse S180 cells after 60 mins; conditions: ccrf s-180, 1 h
CCRF S-180 [2] = experiment: Cellular uptake in mouse S180 cells relative to [18F]FDG
CCRF S-180 [3] = experiment: Cellular uptake in mouse S180 cells after 30 mins; conditions: ccrf s-180, 0.5 h

Drug uptake (CCRF S-180 [1]) [%] | Drug uptake (CCRF S-180 [2]) [%] | Drug uptake (CCRF S-180 [3]) | Compound
9 | < 7 |  | N[C@@H](Cc1ccc(OCC[18F])cc1)C(=O)O [FLORETYROSINE F18]
9 |  | Active | O=C[C@H]([18F])[C@@H](O)[C@H](O)[C@H](O)CO
